# Measurements from patent publication US20250127904A1, “SIGLEC LIGANDS, CONJUGATES, AND METHODS OF USE THEREOF” (Osprey Biopharmaceuticals, Inc., priority 2023, published 2025).
# What was measured:
# [1] = target: T1, biotinylated mouse siglec-2-Fc-Avi (Mus musculus, UniProt P35329); assay: SPR binding to mouse siglec-2/CD22; settings: steady-state analysis, read-out: Mouse CD22 affinity
# T1 construct: made in house
# T1 sequence (P35329 22-708 limits assumed): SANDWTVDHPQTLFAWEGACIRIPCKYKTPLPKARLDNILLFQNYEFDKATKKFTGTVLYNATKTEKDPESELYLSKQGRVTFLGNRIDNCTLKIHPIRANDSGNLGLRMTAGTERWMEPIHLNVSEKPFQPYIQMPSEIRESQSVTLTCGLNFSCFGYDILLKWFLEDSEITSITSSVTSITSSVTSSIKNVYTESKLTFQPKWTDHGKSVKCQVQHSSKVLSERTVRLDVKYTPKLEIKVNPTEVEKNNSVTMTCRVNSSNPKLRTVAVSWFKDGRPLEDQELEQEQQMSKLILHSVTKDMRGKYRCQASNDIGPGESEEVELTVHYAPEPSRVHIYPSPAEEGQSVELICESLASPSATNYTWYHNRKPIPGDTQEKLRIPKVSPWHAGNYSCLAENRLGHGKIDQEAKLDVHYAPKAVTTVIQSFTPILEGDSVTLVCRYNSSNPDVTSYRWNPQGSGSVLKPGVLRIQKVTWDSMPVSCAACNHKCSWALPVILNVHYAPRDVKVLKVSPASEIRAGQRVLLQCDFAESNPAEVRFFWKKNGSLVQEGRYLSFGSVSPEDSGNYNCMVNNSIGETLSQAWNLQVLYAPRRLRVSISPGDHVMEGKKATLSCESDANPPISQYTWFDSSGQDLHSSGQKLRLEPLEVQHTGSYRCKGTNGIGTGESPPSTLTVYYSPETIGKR
# Protocol: (§1) The following proteins were used for CD22 ligand binding: biotinylated human siglec-2/CD22 protein-His-Avitag (Acro Biosystems, Cat #SI2-H82E3), biotinylated mouse siglec-2-Fc-Avi (in-house production), and recombinant cynomolgus siglec-2/CD22 His-tag (R&D systems, Cat #9864-SL-050). Prior to immobilization, CD22 proteins were treated with SialoExo (Genovis, Cat #G1-SM1-020) for 4 hours at 37° C. to remove native sialic acid residues.
# (§2) Capture of biotinylated CD22 constructs was performed using a Cytiva SA chip (BR100398) on a Biacore 8K instrument. Human siglec 2 was immobilized on channels 1-4 and mouse siglec 2 on channels 5-8 on the active flow cell (2) and the reference flow cell (1) was immobilized with biotinylated human FGFR2 Fc Avi, an unrelated protein, to account for any nonspecific binding. Human siglec 2 and Mouse siglec 2 were diluted in running buffer to 20 μg/mL and injected on the active flow cell (2) for 300 seconds at 5 μL/min, yielding about 3500 RU of captured constructs.
# (§3) Binding experiments of siglec-ligand conjugated proteins or Siglec ligand compounds were performed on the surfaces prepared above in 10 mM HEPES, 150 mM NaCl, 0.05% Tween-20, pH 7.5, 1% DMSO as the running buffer. Compounds were serially diluted in running buffer from 50 μM to 97.6 nM and injected over both the reference and active flow cells for 90 seconds at 30 μL/min. The compounds were then allowed to dissociate from the surface for 120 seconds. No regeneration was required as the compounds completely dissociated from the surface after 30 seconds. Solvent correction was performed using 0.5, 1, 1.5, and 2% DMSO spike into running buffer without DMSO. Data was analyzed using steady-state analysis in Biacore Insight Evaluation Software, version 3.0.
# [2] = target: T2, biotinylated human siglec-2/CD22 protein-His-Avitag (Homo sapiens, UniProt P20273); assay: SPR binding to human siglec-2/CD22; settings: steady-state analysis, read-out: Human CD22 affinity
# T2 construct: purchased Acro Biosystems SI2-H82E3
# T2 sequence (P20273 20-847): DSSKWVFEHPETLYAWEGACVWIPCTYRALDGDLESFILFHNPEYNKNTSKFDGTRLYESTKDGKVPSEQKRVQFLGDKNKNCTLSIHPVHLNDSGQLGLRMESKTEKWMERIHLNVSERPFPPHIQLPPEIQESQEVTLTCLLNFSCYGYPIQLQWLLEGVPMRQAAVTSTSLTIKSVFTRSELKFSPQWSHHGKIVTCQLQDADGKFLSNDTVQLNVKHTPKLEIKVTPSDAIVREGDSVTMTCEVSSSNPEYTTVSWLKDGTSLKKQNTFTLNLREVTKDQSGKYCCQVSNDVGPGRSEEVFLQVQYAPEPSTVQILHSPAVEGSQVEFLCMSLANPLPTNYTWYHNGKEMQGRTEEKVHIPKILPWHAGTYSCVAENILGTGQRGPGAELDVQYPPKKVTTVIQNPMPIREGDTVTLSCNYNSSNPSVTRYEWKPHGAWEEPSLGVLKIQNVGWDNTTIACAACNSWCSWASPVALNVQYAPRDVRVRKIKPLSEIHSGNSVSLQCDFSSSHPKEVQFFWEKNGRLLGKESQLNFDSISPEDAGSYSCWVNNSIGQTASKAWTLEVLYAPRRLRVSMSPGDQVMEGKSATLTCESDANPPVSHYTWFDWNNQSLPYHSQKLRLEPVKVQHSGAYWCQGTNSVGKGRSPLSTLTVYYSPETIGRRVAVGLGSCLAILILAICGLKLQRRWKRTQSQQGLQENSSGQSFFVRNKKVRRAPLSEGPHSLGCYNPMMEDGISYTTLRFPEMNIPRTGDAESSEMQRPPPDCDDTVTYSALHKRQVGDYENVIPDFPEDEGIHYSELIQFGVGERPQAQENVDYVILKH
# Protocol: as §1, §2, §3
# [3] = target: recombinant cynomolgus siglec-2/CD22 His-tag (Macaca fascicularis, UniProt A0A2K5WCZ6); assay: SPR binding to cynomolgus siglec-2/CD22; settings: steady-state analysis, read-out: Cyno CD22 affinity
# Protocol: as §1
# Surface preparation for cyno CD22 protein consisted of amine coupling to Cytiva CM5 chip (Cytiva, Cat #BR100530) using the Cytiva amine coupling kit Type 2 (Cytiva, Cat #BR100633). Following the standard amine coupling protocols, EDC and NHS from the kit were mixed 1:1 and injected over flow cells 1 and 2. Cyno CD22 was then immobilized by injecting 10 μg/mL in Sodium Acetate, pH 5.5 onto flow cell (2) for 420 seconds at 10 uL/min, yielding approximately 2500 RU of captured protein. Any active carboxy groups were then capped with 1M Ethanolamine, pH 8.5 for 420 s on flow cells 1 and 2.
# as §3
# Sequence of recombinant cynomolgus siglec-2/CD22 His-tag (A0A2K5WCZ6 entry or part of it): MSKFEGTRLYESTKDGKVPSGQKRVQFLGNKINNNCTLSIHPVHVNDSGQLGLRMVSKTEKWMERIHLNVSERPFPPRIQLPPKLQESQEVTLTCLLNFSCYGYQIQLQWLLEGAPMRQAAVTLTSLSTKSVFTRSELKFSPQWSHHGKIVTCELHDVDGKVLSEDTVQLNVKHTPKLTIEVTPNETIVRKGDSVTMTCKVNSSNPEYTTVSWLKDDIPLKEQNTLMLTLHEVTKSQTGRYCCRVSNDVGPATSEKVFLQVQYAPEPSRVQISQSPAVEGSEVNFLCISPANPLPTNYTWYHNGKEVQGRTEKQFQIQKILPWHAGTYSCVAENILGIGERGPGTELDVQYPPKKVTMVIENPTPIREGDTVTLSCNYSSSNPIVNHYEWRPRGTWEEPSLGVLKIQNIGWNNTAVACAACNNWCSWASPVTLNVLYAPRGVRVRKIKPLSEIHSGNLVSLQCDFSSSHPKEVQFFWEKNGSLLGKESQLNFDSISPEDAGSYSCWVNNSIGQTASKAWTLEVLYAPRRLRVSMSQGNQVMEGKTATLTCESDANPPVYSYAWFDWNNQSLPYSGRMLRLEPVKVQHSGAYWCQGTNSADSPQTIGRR
SMILES,Kd [1] [µM],Kd [2] [µM],Kd [3] [µM]
"C#CCOCCOCCOCc1ccc(CC(=O)NC[C@@H](O)[C@@H](O)[C@@H]2O[C@@](OCc3ccccc3)(C(=O)O)C[C@H](O)[C@H]2NC(=O)CO)cc1 [Compound 9, (2R,4S,5R,6R)-2-(benzyloxy)-6-((1R,2R)-1,2-dihydroxy-3-(2-(4-((2-(2-(prop-2-yn-1-yloxy)ethoxy)ethoxy)methyl)phenyl)acetamido)propyl)-4-hydroxy-5-(2-hydroxyacetamido)tetrahydro-2H-pyran-2-carboxylic acid]",1 to 10,1 to 10,1 to 10
"C#Cc1ccc(CC(=O)NC[C@@H](O)[C@@H](O)[C@@H]2O[C@@](OCCCCCCOC)(C(=O)O)C[C@H](O)[C@H]2NC(=O)CO)cc1 [Compound 11, (2R,4S,5R,6R)-6-((1R,2R)-3-(2-(4-ethynylphenyl)acetamido)-1,2-dihydroxypropyl)-4-hydroxy-5-(2-hydroxyacetamido)-2-((6-methoxyhexyl)oxy)tetrahydro-2H-pyran-2-carboxylic acid]",1 to 10,< 1,< 1
"C#Cc1ccc(CC(=O)NC[C@@H](O)[C@@H](O)[C@@H]2O[C@@](SCc3ccccc3)(C(=O)O)C[C@H](O)[C@H]2NC(=O)CO)cc1 [Compound 12, (2S,4S,5R,6R)-2-(benzylthio)-6-((1R,2R)-3-(2-(4-ethynylphenyl)acetamido)-1,2-dihydroxypropyl)-4-hydroxy-5-(2-hydroxyacetamido)tetrahydro-2H-pyran-2-carboxylic acid]",< 1,< 1,< 1
"C#CCOCCCCCCCc1ccc(CC(=O)NC[C@@H](O)[C@@H](O)[C@@H]2O[C@@](OCc3ccccc3)(C(=O)O)C[C@H](O)[C@H]2NC(=O)CO)cc1 [Compound 13, (2R,4S,5R,6R)-2-(benzyloxy)-6-((1R,2R)-1,2-dihydroxy-3-(2-(4-(7-(prop-2-yn-1-yloxy)heptyl)phenyl)acetamido)propyl)-4-hydroxy-5-(2-hydroxyacetamido)tetrahydro-2H-pyran-2-carboxylic acid]",1 to 10,1 to 10,1 to 10
"O=C(O)CCCCCCCCC#Cc1ccc(CC(=O)NC[C@@H](O)[C@@H](O)[C@@H]2O[C@@](OCc3ccccc3)(C(=O)O)C[C@H](O)[C@H]2NC(=O)CO)cc1 [Compound 14, (2R,4S,5R,6R)-2-(benzyloxy)-6-((1R,2R)-3-(2-(4-(10-carboxydec-1-yn-1-yl)phenyl)acetamido)-1,2-dihydroxypropyl)-4-hydroxy-5-(2-hydroxyacetamido)tetrahydro-2H-pyran-2-carboxylic acid]",< 1,1 to 10,1 to 10
"C#CCOCCOCCOc1ccc(CC(=O)NC[C@@H](O)[C@@H](O)[C@@H]2O[C@@](OCc3ccccc3)(C(=O)O)C[C@H](O)[C@H]2NC(=O)CO)cc1 [Compound 15, (2R,4S,5R,6R)-2-(benzyloxy)-6-((1R,2R)-1,2-dihydroxy-3-(2-(4-(2-(2-(prop-2-yn-1-yloxy)ethoxy)ethoxy)phenyl)acetamido)propyl)-4-hydroxy-5-(2-hydroxyacetamido)tetrahydro-2H-pyran-2-carboxylic acid]",1 to 10,1 to 10,1 to 10
"CCCCCCO[C@]1(C(=O)O)C[C@H](O)[C@@H](NC(=O)CO)[C@H]([C@H](O)[C@H](O)CNC(=O)Cc2ccc(-c3cn(CCOCCOCCOCCC(=O)NCC)nn3)cc2)O1 [Compound 16, (2R,4S,5R,6R)-6-((1R,2R)-1,2-dihydroxy-3-(2-(4-(1-(12-oxo-3,6,9-trioxa-13-azapentadecyl)-1H-1,2,3-triazol-4-yl)phenyl)acetamido)propyl)-2-(hexyloxy)-4-hydroxy-5-(2-hydroxyacetamido)tetrahydro-2H-pyran-2-carboxylic acid]",< 1,< 1,< 1
"C#CCO[C@H]1C[C@](OCc2ccccc2)(C(=O)O)O[C@@H]([C@H](O)[C@H](O)CNC(=O)Cc2ccc(Cl)cc2)[C@@H]1NC(=O)CO [Compound 18, (2R,4S,5R,6R)-2-(benzyloxy)-6-((1R,2R)-3-(2-(4-chlorophenyl)acetamido)-1,2-dihydroxypropyl)-5-(2-hydroxyacetamido)-4-(prop-2-yn-1-yloxy)tetrahydro-2H-pyran-2-carboxylic acid]",1 to 10,1 to 10,1 to 10
"CCCNC(=O)CCOCCOCCOCCn1cc(CO[C@H]2C[C@](OCc3ccccc3)(C(=O)O)O[C@@H]([C@H](O)[C@H](O)CNC(=O)Cc3ccc(Cl)cc3)[C@@H]2NC(=O)CO)nn1 [Compound 19, (2R,4S,5R,6R)-2-(benzyloxy)-6-((1R,2R)-3-(2-(4-chlorophenyl)acetamido)-1,2-dihydroxypropyl)-5-(2-hydroxyacetamido)-4-((1-(12-oxo-3,6,9-trioxa-13-azahexadecyl)-1H-1,2,3-triazol-4-yl)methoxy)tetrahydro-2H-pyran-2-carboxylic acid]",1 to 10,1 to 10,1 to 10
"C#CCO[C@H]1C[C@](OCCCCCC(=O)O)(C(=O)O)O[C@@H]([C@H](O)[C@H](O)CNC(=O)Cc2ccc(Cl)cc2)[C@@H]1NC(=O)CO [Compound 20, (2R,4S,5R,6R)-2-((5-carboxypentyl)oxy)-6-((1R,2R)-3-(2-(4-chlorophenyl)acetamido)-1,2-dihydroxypropyl)-5-(2-hydroxyacetamido)-4-(prop-2-yn-1-yloxy)tetrahydro-2H-pyran-2-carboxylic acid]",1 to 10,1 to 10,1 to 10
"C#CCOCCOCCOCCC(=O)N[C@H]1[C@H]([C@H](O)[C@H](O)CNC(=O)Cc2ccc(Cl)cc2)O[C@@](OCc2ccccc2)(C(=O)O)C[C@@H]1O [Compound 21, (2R,4S,5R,6R)-2-(benzyloxy)-6-((1R,2R)-3-(2-(4-chlorophenyl)acetamido)-1,2-dihydroxypropyl)-4-hydroxy-5-(3-(2-(2-(prop-2-yn-1-yloxy)ethoxy)ethoxy)propanamido)tetrahydro-2H-pyran-2-carboxylic acid]",> 10,1 to 10,1 to 10
